The test system of one data set is 45-bp dsDNA. In words: DNA intercalation: acridine orange displacement from dsDNA by fluorescence polarization. It is filed as binding. The conditions noted are these: Supplementary Table 2; for % intercalation at 30 µM: acridine orange displacement compared to mitoxantrone; for Polarization: compound 30 µM. As to the method: Ten microliters of HEN buffer (10 mM HEPES pH 7.5, 1 mM EDTA pH 7.5, 100 mM NaCl) were dispensed per well using a Thermo Multidrop Combi dispenser (Thermo Scientific). The liquid was collected at the well bottom using centrifugation for 30 s at 180×g. […] The final concentration of compounds in the assay was 30 µM. […] The liquid was collected at the well bottom using centrifugation for 30 s at 180×g. […] The liquid was collected at the well bottom using centrifugation for 30 s at 180 × g and the plates were incubated for 30 min. Mitoxantrone, a known DNA intercalator was used at 50 µM as a positive control, while DMSO alone was used as negative control. FP was measured using a Biotek Synergy Neo plate reader. […] All FP values are expressed in millipolarization (mP) units. The mP values were calculated using the equation mP = 1000 × [(I S−I SB)−(I P−I PB)]/[I S—I SB) + (I P−I PB)], where I S and […] to the parallel and perpendicular emission intensity, respectively, and I SB and I SP corresponds to parallel emission intensity perpendicular emission intensity of the buffer, respectively. The experimental G-factor, defined as G = I S/I P, was set to 1.0 in all experiments.
In general terms: In fluorescence polarisation assays a small probe gives low polarisation when free and higher when bound to something large.

A further data set addresses T1, mouse cGAS (Mus musculus, UniProt Q8C6L5).
T1 construct: recombinant full-length mouse cGAS in reaction buffer; His6-SUMO (N, cleaved yes); made in house; host or cells: E. coli BL21(DE3) RIL
In words: RapidFire mass spectrometry (RF-MS) cGAS enzymatic assay, cGAMP product formation. The class given is biochemical. The conditions noted are these: for inhibition at 12.5 µM: compound 12.5 µM, read-out: % inhibition at 12.5 µM. How it is done:
The liquid was collected at the well bottom using centrifugation for 30 s at 180×g. […] Plates were centrifuged for 30 s at 180×g to collect all liquid at the bottom of the wells. […] The reaction was stopped by addition of 65 µl of 0.5% (v/v) formic acid per well. The plates were centrifuged for 30 s at 180×g and sealed with a Velocity11 PlateLoc thermal plate sealer.
The solvent used for loading/washing process was an aqueous solution of 5 mM ammonium acetate, pH 10. […] Each sample of approximately 35 µl were aspirated from a 384-well plate and separated using a Graphitic carbon Type D cartridge. After each sample was loaded onto the cartridge it was washed for 4 s at 1.5 ml min^−1 using the aqueous solvent. ATP, GTP and cGAMP were eluted for 5 s using the organic solvent at a flow rate of 1.5 ml min^−1. The cartridge was then re-equilibrated with the aqueous solvent for 5 s at a flow rate of 1.5 ml min^−1. All samples were analyzed using a negative ionization mode in the mass spectrometer, with a gas temperature of 350 °C, nebulizer pressure of 35 psig, gas flow rate of 15 l min^−1. […] The Agilent RapidFire Integrator software was used to calculate the area under the curve (AUC) of the extracted ion counts for each analyte. Data points represent values of product formation. Catalytic rates expressed as percent product formation were calculated using the AUC of cGAMP and using the AUC’s of ATP and GTP to normalize for variations in the capacity of the solid phase extraction column during a screening run, as shown in the following formula: product formation (%) = [(AUCcGAMP × 100)/(AUCcGAMP + ½ AUCATP + ½ AUCGTP)].
To determine the percent inhibition of mouse cGAS the data was normalized against the positive control (column 24) and negative control (column 23). […] The quality of the screen was assessed by Z′ factor[57] calculated as follows: Z′ = 1−[3∗(standard deviation positive control + standard deviation negative control)/(average positive control—average negative control)].

For the next data set, the system named is IFNB1-Luc activity. In words: Interferon induction cellular assay (IFNB1-Luc) of the original manuscript version, reported in the point-by-point response. It is filed as cell-based. The conditions noted are these: original Fig. 5a, compared with vehicle.
The next data set deals with RAW 264.7. In words: Cytotoxicity, CellTiter-Glo ATP quantitation at 72 h. The class given is cell-based. How it is done: Small-molecule compounds were serially diluted to concentrations spanning the range tested in the response curves were added to 6.7 × 10^5 RAW-Blue macrophages plated 16 h prior in 96-well dishes, then harvested 72 h after compound addition. ATP was measured using CellTiter Glo Viability Assay (Promega) using 50 µM Tamoxifen (Sigma) as a positive control for cytotoxicity. Viability values were generated using vehicle (DMSO) or the first dose (RU.521) as 100% and Tamoxifen as 0%. Outliers were removed as described previously.
In general terms: ATP-based viability assays read luminescence as a measure of living cells.

Data set [1] deals with RAW macrophage cells stimulated with 5′ppp-HP20 RNA, Pam3CSK4, poly(I:C), LPS or recombinant Ifnb. Put plainly: Selectivity: RAW macrophages stimulated with non-DNA immunogenic ligands (luciferase reporter or Il-6 qRT-PCR). The class given is cell-based, mouse. The conditions noted are these: compound at EC75; 5′ppp-HP20 RNA, Pam3CSK4, poly(I:C), LPS, Ifnb. As to the method:
(§1) The sequence and annealing conditions of the dsDNA used is described above. Typically, 0.4 µg or 0.6 µg of dsDNA was used to stimulate RAW-Lucia ISG-KO-TREX1/ISG-KO-cGAS or RAW-Lucia ISG cells, respectively, which equated to 90% of maximal luciferase activity observed. dsDNA stimulation of RAW macrophages and subsequent luciferase measurements were performed with or without the addition of small molecules at indicated concentrations in each figure, or with DMSO as vehicle control. For the dose curve experiments, serial dilutions of inhibitors were applied to 6.7 × 10^5 cells, plated in 24-well dishes, and co-stimulated with 0.4 µg of dsDNA. In subsequent experiments using inhibitors in RAW cells, the small molecules were used at concentrations representing the derived EC75 values, while co-stimulated with one of the following: 0.4 µg dsDNA, 50 nM 5′ppp-HP20 hairpin RNA (a kind gift from Dr Anna Pyle, Yale University; sequence located in Supplementary Table 5), 10 µM cGAMP, or 100 U ml^−1 murine recombinant Ifnb (R&D Systems). dsDNA was transfected using Lipofectamine LTX. 5′ppp-HP20 RNA was transfected using Lipofectamine 2000. Cells were harvested 24 h post-transfection, washed with PBS, and lysed in 1× Luciferase Cell Lysis Buffer (Pierce).
(§2) The minimum numbers of biological and technical replicates for the luciferase assays were two and three, respectively. Analysis of luminescence values were evaluated for outliers (one standard deviation above and below the mean) for each biological replicate, and the resulting means were used to generate graphs in GraphPad Prism (v. 7.0c); where applicable, an unpaired t-test with Welch’s correction was used to compare the results of each individual compound to dsDNA or other stimulant. The experimental variances observed within control samples (untreated or vehicle) and treated samples were similar.
The small molecules were used at concentrations representing the EC75 values and were co-stimulated with either 200 ng Pam3CSK4 (Invivogen), 25 µg poly(I:C) or 100 ng lipopolysaccharide (Sigma-Aldrich) at the cell counts and conditions previously described for the cellular luciferase assays. Cells were harvested 24 h post-transfection, washed with PBS, and RNA was extracted using Trizol (Ambion) and chloroform (Sigma-Aldrich). In all, 1–2 µg of total RNA was reverse-transcribed using random hex primers and SuperScript III (Life Technologies) into cDNA. […] The expression of mRNAs […] murine Actb1 and Il-6 were measured (see Supplementary Table 5 for primer sequences used). Target C T values were normalized to Actb1 C T values and used to calculate ΔC T. mRNA expression of target genes were then calculated using the ΔΔC T method (2^ΔΔCT). Expression values were analyzed as described in the method for cellular luciferase assays.
(In general: In a reporter assay the amount or activity of a reporter protein is the signal.)

Data set [2] deals with cGAS activity in dsDNA-stimulated RAW macrophages. Put plainly: Cellular luciferase assay, interferon-responsive reporter in dsDNA-stimulated RAW macrophages. The class given is cell-based. The conditions noted are these: Mus musculus, Macrophage, dsDNA-activated RAW cells. How it is done: as §1, §2
Data set [3] deals with cGAS (cyclic GMP-AMP synthase) (mouse, UniProt Q8C6L5 147-507). In words: X-ray crystallography, 2.13 A; RU.365 in active site; Co-crystallization; crystallization buffer not in the material; protein stock 20 mM Tris-HCl pH 7.5, 300 mM NaCl, 1 mM DTT. ITC values are for inhibitors, and t. The conditions noted are these: protein: recombinant; tags: His6-SUMO removed by ULP1; chain copies: 2; 16 bp plus 1-nt 5' overhang at each end.

The mark [4] stands for this setting: Fig. 1e, four prioritized screening hits, confirmed with independent lots of compound, read-out: IC50.
Where [5] appears, read: Supplementary Table 2, batch of compounds stored in the screening library, read-out: IC50.

Like-named read-outs stand apart in the source and are kept apart here.

T1 sequence (Q8C6L5 whole entry): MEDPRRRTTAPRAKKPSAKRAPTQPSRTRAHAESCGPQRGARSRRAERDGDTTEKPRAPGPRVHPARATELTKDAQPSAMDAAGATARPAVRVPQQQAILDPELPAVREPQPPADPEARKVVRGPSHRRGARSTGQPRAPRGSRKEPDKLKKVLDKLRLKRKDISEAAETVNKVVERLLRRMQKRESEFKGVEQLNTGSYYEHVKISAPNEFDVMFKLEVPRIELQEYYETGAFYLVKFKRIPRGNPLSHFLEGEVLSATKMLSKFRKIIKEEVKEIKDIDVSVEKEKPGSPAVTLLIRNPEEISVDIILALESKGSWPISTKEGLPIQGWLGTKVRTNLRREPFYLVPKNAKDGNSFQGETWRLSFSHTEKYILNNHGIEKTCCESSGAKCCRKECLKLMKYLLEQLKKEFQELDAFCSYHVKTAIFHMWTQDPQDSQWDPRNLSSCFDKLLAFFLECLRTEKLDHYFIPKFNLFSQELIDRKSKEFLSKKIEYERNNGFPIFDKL
Sequence of cGAS (cyclic GMP-AMP synthase) (Q8C6L5 147-507): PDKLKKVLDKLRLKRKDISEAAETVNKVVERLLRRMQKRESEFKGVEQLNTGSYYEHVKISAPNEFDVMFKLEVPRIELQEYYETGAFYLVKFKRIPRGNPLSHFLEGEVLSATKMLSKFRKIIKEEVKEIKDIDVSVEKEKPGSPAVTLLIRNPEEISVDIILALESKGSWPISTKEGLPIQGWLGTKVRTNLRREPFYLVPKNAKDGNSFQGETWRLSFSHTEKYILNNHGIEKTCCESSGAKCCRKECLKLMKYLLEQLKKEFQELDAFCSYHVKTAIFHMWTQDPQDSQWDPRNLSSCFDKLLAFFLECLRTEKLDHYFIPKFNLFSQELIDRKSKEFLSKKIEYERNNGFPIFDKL

In general, IC50 refers to the point on the concentration scale where inhibition reaches its midpoint. In general, inhibition refers to how much of the control response was suppressed. Turning to `O=C1N=C(N2CCCCC2)SC1=C1C(=O)Nc2ccccc21` [RU100840], in the data set on 45-bp dsDNA, the “% intercalation at 30 µM” value is on record as -8.9% and the Polarization is 269 mP. Moreover, the IC50 at mouse cGAS (setting [4]) came to 0.03 µM. Moreover, the IC50 at mouse cGAS (setting [5]) was 0.06 µM. In addition, on mouse cGAS (Supplementary Table 2), the inhibition at 12.5 µM amounted to 88%. Further, the IFNB1-Luc activity result in the data set with IFNB1-Luc activity was “mild activation”.
In the case of `N#Cc1cc(I)c(O)c([N+](=O)[O-])c1` [RU187299], in the data set with 45-bp dsDNA, the “% intercalation at 30 µM” value was -2.8% and the Polarization is 256 mP. Further, the IC50 at mouse cGAS (setting [5]) worked out at 0.58 µM. On mouse cGAS (Supplementary Table 2), the inhibition at 12.5 µM amounted to 95%.
As to `O=C(Nc1ncc([N+](=O)[O-])s1)c1cccs1` [RU187339], in the data set with 45-bp dsDNA, the Polarization was 274 mP. Also, at mouse cGAS (setting [5]), the IC50 came to 6.62 µM. At mouse cGAS (Supplementary Table 2), the inhibition at 12.5 µM was 86%.
For the molecule `N=C(N)NN=C1C=CC(=NNC(N)=S)C=C1` [RU187428], the Polarization in the data set on 45-bp dsDNA was 164 mP. On mouse cGAS, this molecule gave an IC50 of 9.93 µM. In addition, on mouse cGAS (Supplementary Table 2), the inhibition at 12.5 µM is 79%.
As to `O=C(Nc1nncs1)c1cn(-c2ccccc2Br)nn1` [RU191669], in the data set on 45-bp dsDNA, the “% intercalation at 30 µM” value was -1.0% and the Polarization is 253 mP. The IC50 at mouse cGAS (setting [5]) was found to be 9.09 µM. On mouse cGAS (Supplementary Table 2), the inhibition at 12.5 µM amounted to 71%.
In the case of `O=C(COc1ccc(Cl)c2ccccc12)Nc1ncccc1O` [RU191752], in the data set on 45-bp dsDNA, the Polarization worked out at 276 mP. Besides, the figures for the IC50 on mouse cGAS (setting [4]) and on mouse cGAS (setting [5]) were 0.07 µM and 0.17 µM, respectively. In addition, at mouse cGAS (Supplementary Table 2), the inhibition at 12.5 µM amounted to 95%. Moreover, the IFNB1-Luc activity result in the data set on IFNB1-Luc activity is “mild activation”.
In the case of `N#Cc1ccc(/C=C2\CS(=O)(=O)c3c(F)cccc3C2=O)cc1` [RU198755], in the data set on 45-bp dsDNA, the “% intercalation at 30 µM” value is given as -6.2% and the Polarization is listed as 263 mP. Further, the IC50 at mouse cGAS (setting [5]) worked out at 6.33 µM. Also, the inhibition at 12.5 µM at mouse cGAS (Supplementary Table 2) is 63%.
For the molecule `O=C1CN2C(=C1c1ccccc1)NC(=O)c1sc3ccccc3c12` [RU207450], the Polarization in the data set on 45-bp dsDNA is given as 274 mP. Moreover, the concentration for half-maximal inhibition (IC50) on mouse cGAS (setting [5]) came out at 9.69 µM. In addition, the inhibition at 12.5 µM at mouse cGAS (Supplementary Table 2) was 70%.
For `CS(=O)(=O)c1ncc2c(n1)c(=O)c(C#N)c1[nH]c3ccccc3c(=O)n12` [RU207488], in that order: 272 mP, 4.68 µM and 67%.
On to `COC(=O)C1=NN2C(=NS(=O)(=O)c3ccccc32)N1` [RU209189], for which, in the data set with 45-bp dsDNA, the “% intercalation at 30 µM” value worked out at 0.0% and the Polarization is recorded as 251 mP. The IC50 on mouse cGAS (setting [5]) is 4.44 µM. For the same molecule, the inhibition at 12.5 µM on mouse cGAS (Supplementary Table 2) was determined as 91%.
For `OCc1cn(-c2ccccc2Cl)nn1` [RU219771], in that order: -1.3%, 253 mP, 1.27 µM and 94%.
`O=c1cc(CCn2cccn2)nc(-c2ccc(CN3CCC[C@@H]3CO)cc2)[nH]1` [RU234543]: in the data set with 45-bp dsDNA, the “% intercalation at 30 µM” value is -9.3% and the Polarization is 270 mP. Also, the IC50 on mouse cGAS (setting [5]) came to 6.76 µM. Moreover, the inhibition at 12.5 µM on mouse cGAS (Supplementary Table 2) worked out at 89%.
For the molecule `Cc1nn(-c2nc3ccccc3s2)c(O)c1C1OC(=O)c2ccccc21` (stereo not drawn) [RU281332], the “LD50 over cellular IC50” value in the data set with RAW 264.7 was 3.5 fold. For the same molecule, the LD50 in the data set on RAW 264.7 (RAW macrophages, 72 h, percent viability, listed as RU.332) is 48 µM. Besides, the “suppression of activation by immunogenic stimuli other than dsDNA” value in data set [1] is reported as “inhibited the activation of cells by most of the immunogenic ligands tested”. Further, the IC50 on mouse cGAS (Supplementary Table 3, analogs more potent than RU166365, read-out: IC50) was 1.79 µM; in data set [2], 13.6 µM. Besides, on mouse cGAS (compared with RU.365), the “effect of structural modification on cGAS inhibitory potency” value is recorded as “did not change the potency”.

B1: crystal dsDNA (dsDNA)
DNA 1: AAATTGCCGAAGACGAA
DNA 2: TTTCGTCTTCGGCAATT
For B1, in data set [3], the binding result is listed as “binds”.

These data come from article PMC5622107, “Small molecule inhibition of cGAS reduces interferon expression in primary macrophages from autoimmune mice” (Nature Communications, 2017).
